In test [1] the target is human mPGES-1 (Homo sapiens (Human), UniProt O14684). The test is described as follows: mPGES-1 inhibitory activity test. Particulars: for inhibition at 0.01 µM: 10 nM test compound; for inhibition at 0.1 µM: 100 nM test compound. Type of test: biochemical. The method in brief:
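PGE2 formation was quantified by HTRF and reported as percent inhibition at 10 and 100 nM compound or as IC50. The 60-second reaction at 4° C used 1 μM PGH2, after a 20-minute 4° C preincubation of compound (1% DMSO final) with glutathione-supplemented (2.5 mM, pH 7.4) microsomes. The microsomes were from transiently transfected CHO-K1 cells expressing human mPGES-1.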

In test [2] the test system is human A549 cells. Briefly: Inhibition test of PGE2 production using human A549 cells. Type of test: cell-based. Particulars: IL-1β stimulated A549 cells, 24 h, PGE2 by HTRF, read-out: A549 cell inhibition of PGE2 production IC50. Put shortly: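 A549 cells were preincubated 60 min with compound in RPMI/3% FBS (0.1% DMSO final), then stimulated with IL-1β (5 ng/well) for 24 h at 37°C. PGE2 was measured by HTRF and PGF2a by EIA; activity was normalized to stimulated minus unstimulated controls, and IC50 derived.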
For orientation: TR-FRET usually uses a lanthanide donor and a delayed reading to cut background.

As usually defined, the inhibition is the percentage by which the read-out fell short of the control. Lower therefore signals a weak effect. A word on the IC50: it is the midpoint of a concentration-inhibition curve.

Sequence of human mPGES-1 (O14684 whole entry): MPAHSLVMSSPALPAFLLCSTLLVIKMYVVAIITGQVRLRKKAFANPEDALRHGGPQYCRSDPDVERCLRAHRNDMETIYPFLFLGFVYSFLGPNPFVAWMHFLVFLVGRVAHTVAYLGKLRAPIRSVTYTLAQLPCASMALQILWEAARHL

In test [1], `CC(C)n1ncc2c(NC(=O)c3cc(CNC(=O)C(C)(C)C)ccc3C(F)(F)F)cccc21` [Example 202, 5-{[(2,2-Dimethylpropanoyl)amino]methyl}-N-[1-(propan-2-yl)-1H-indazol-4-yl]-2-(trifluoromethyl)benzamide] came in with an inhibition at 0.01 µM of 59% and an inhibition at 0.1 µM of 79%. Also, the IC50 in test [2] was determined as 20.2 nM.
Taken in the same sequence, the figures for `Cn1ncc2c(NC(=O)c3cc(CNC(=O)C4CCCC4)ccc3Cl)cccc21` [Example 204, 2-Chloro-5-{[(cyclopentylcarbonyl)amino]methyl}-N-(1-methyl-1H-indazol-4-yl)benzamide] were 57%, 85% and 43.6 nM.
With `COCC(=O)NCc1ccc(Cl)c(C(=O)Nc2cccc3c2cnn3C)c1` [Example 207, 2-Chloro-5-{[(methoxyacetyl)amino]methyl}-N-(1-methyl-1H-indazol-4-yl)benzamide], 0.01 µM produced 59% inhibition in test [1]. Moreover, in test [2], the IC50 turned out to be 303 nM.
Turning to `Cn1ncc2c(NC(=O)c3cc(CNS(=O)(=O)C4CC4)ccc3Cl)cccc21` [Example 208, 2-Chloro-5-{[(cyclopropylsulfonyl)amino]methyl}-N-(1-methyl-1H-indazol-4-yl)benzamide], in test [1], the inhibition at 0.01 µM was found to be 63% and the inhibition at 0.1 µM turned out to be 68%. In addition, in test [2], the half-inhibitory concentration (IC50) is 799 nM.
The like results for `Cn1ncc2c(NC(=O)c3cc(CNC(=O)C(C)(C)C)ccc3C(F)(F)F)cccc21` [Example 209, 5-{[(2,2-Dimethylpropanoyl)amino]methyl}-N-(1-methyl-1H-indazol-4-yl)-2-(trifluoromethyl)benzamide] were, in that order, 76%, 90% and 38.4 nM.
With `CCn1ncc2c(NC(=O)c3cc(CNC(=O)CC(C)(C)C)ccc3Cl)cccc21` [Example 210, 2-Chloro-5-{[(3,3-dimethylbutanoyl)amino]methyl}-N-(1-ethyl-1H-indazol-4-yl)benzamide], in test [1], the inhibition at 0.01 µM is 64%. Further, the IC50 in test [2] amounted to 379 nM.
For the molecule `CCn1ncc2c(NC(=O)c3cc(CNC(=O)C4CCCC4)ccc3Cl)cccc21` [Example 211, 2-Chloro-5-{[(cyclopentylcarbonyl)amino]methyl}-N-(1-ethyl-1H-indazol-4-yl)benzamide], at 0.01 µM the inhibition in test [1] was 84%. Further, the IC50 in test [2] was determined as 65.8 nM.
Taken in the same sequence, the figures for `CCn1ncc2c(NC(=O)c3cc(CNC(=O)C4(C(F)(F)F)CC4)ccc3Cl)cccc21` [Example 212, 2-Chloro-N-(1-ethyl-1H-indazol-4-yl)-5-[({[1-(trifluoromethyl)cyclopropyl]carbonyl}amino)methyl]benzamide] were 71% and 17.3 nM.
In test [1], `CCn1ncc2c(NC(=O)c3cc(CNC(=O)C(C)(C)C)ccc3C(F)(F)F)cccc21` [Example 217, 5-{[(2,2-Dimethylpropanoyl)amino]methyl}-N-(1-ethyl-1H-indazol-4-yl)-2-(trifluoromethyl)benzamide] gave an inhibition at 0.01 µM of 79% and an inhibition at 0.1 µM of 80%. In test [2], the IC50 is 14.7 nM.
The like results for `O=C(Nc1cccc2c1cnn2-c1cccc(C(F)(F)F)c1)c1cc(CNC(=O)C2CCCC2)ccc1Cl` [Example 219, 2-Chloro-5-{[(cyclopentylcarbonyl)amino]methyl}-N-{1-[3-(trifluoromethyl)phenyl]-1H-indazol-4-yl}benzamide] were, in that order, 74%, 93% and 1 nM.
In test [1], `O=C(Nc1cccc2c1cnn2-c1cccc(C(F)(F)F)c1)c1cc(CNC(=O)C2(C(F)(F)F)CC2)ccc1Cl` [Example 220, 2-Chloro-5-[({[1-(trifluoromethyl)cyclopropyl]carbonyl}amino)methyl]-N-{1-[3-(trifluoromethyl)phenyl]-1H-indazol-4-yl}benzamide] registered an inhibition at 0.01 µM of 74% and an inhibition at 0.1 µM of 90%. Moreover, the IC50 in test [2] is less than 1 nM.
As to `O=C(Nc1cccc2c1cnn2-c1cccc(C(F)(F)F)c1)c1cc(CNC(=O)C2(O)CC2)ccc1Cl` [Example 221, 2-Chloro-5-({[(1-hydroxycyclopropyl)carbonyl]amino}methyl)-N-{1-[3-(trifluoromethyl)phenyl]-1H-indazol-4-yl}benzamide], in test [1], testing at 0.01 µM gave an inhibition of 65% and the inhibition at 0.1 µM was 100%. Moreover, the IC50 in test [2] worked out at 2.6 nM.
Regarding `COCC(=O)NCc1ccc(Cl)c(C(=O)Nc2cccc3c2cnn3-c2cccc(C(F)(F)F)c2)c1` [Example 222, 2-Chloro-5-{[(methoxyacetyl)amino]methyl}-N-{1-[3-(trifluoromethyl)phenyl]-1H-indazol-4-yl}benzamide], testing at 0.01 µM in test [1] gave an inhibition of 61%. The IC50 in test [2] was 3.3 nM.
The like results for `CC(C)(CO)C(=O)NCc1ccc(Cl)c(C(=O)Nc2cccc3c2cnn3-c2cccc(C(F)(F)F)c2)c1` [Example 223, 2-Chloro-5-{[(3-hydroxy-2,2-dimethylpropanoyl)amino]methyl}-N-{1-[3-(trifluoromethyl)phenyl]-1H-indazol-4-yl}benzamide] were, in that order, 78% and 0.6 nM.
The like results for `O=C(Nc1cccc2c1cnn2-c1cccc(C(F)(F)F)c1)c1cc(CNS(=O)(=O)C2CC2)ccc1Cl` [Example 224, 2-Chloro-5-{[(cyclopropylsulfonyl)amino]methyl}-N-{1-[3-(trifluoromethyl)phenyl]-1H-indazol-4-yl}benzamide] were, in that order, 83% and less than 1 nM.
With `O=C(Nc1cccc2c1cnn2-c1nccs1)c1cc(CNC(=O)C2CCCC2)ccc1Cl` [Example 227, 2-Chloro-5-{[(cyclopentylcarbonyl)amino]methyl}-N-[1-(1,3-thiazol-2-yl)-1H-indazol-4-yl]benzamide], the inhibition at 0.01 µM in test [1] came to 81%. Also, the IC50 in test [2] was 10 nM.
Taken in the same sequence, the figures for `O=C(Nc1cccc2c1cnn2-c1nccs1)c1cc(CNC(=O)C2(C(F)(F)F)CC2)ccc1Cl` [Example 228, 2-Chloro-N-[1-(1,3-thiazol-2-yl)-1H-indazol-4-yl]-5-[({[1-(trifluoromethyl)cyclopropyl]carbonyl}amino)methyl]benzamide] were 77% and 12.9 nM.
Consider `Cc1cc(-n2ncc3c(NC(=O)c4cc(CNC(=O)C5CCCC5)ccc4Cl)cccc32)ccn1` [Example 235, 2-Chloro-5-{[(cyclopentylcarbonyl)amino]methyl}-N-[1-(2-methylpyridin-4-yl)-1H-indazol-4-yl]benzamide], for which, in test [1], the inhibition at 0.01 µM amounted to 53% and the inhibition at 0.1 µM was 88%. Moreover, the IC50 in test [2] is 6.1 nM.
Taken in the same sequence, the figures for `Cc1cncc(-n2ncc3c(NC(=O)c4cc(CNC(=O)C(C)(C)C)ccc4C(F)(F)F)cccc32)c1` [Example 246, 5-{[(2,2-dimethylpropanoyl)amino]methyl}-N-[1-(5-methylpyridin-3-yl)-1H-indazol-4-yl]-2-(trifluoromethyl)benzamide] were 78%, 89% and 3.5 nM.
In test [1], `Cc1ccc(-n2ncc3c(NC(=O)c4cc(CNS(=O)(=O)C5CC5)ccc4Cl)cccc32)nn1` [Example 253, 2-Chloro-5-{[(cyclopropylsulfonyl)amino]methyl}-N-[1-(6-methylpyridazin-3-yl)-1H-indazol-4-yl]benzamide] yielded an inhibition at 0.01 µM of 67% and an inhibition at 0.1 µM of 75%. Also, in test [2], the IC50 came to 299 nM.
The like results for `Cc1ccc(-n2ncc3c(NC(=O)c4cc(CNC(=O)CC(C)(C)C)ccc4Cl)cccc32)cc1C(F)(F)F` [Example 254, 2-Chloro-5-{[(3,3-dimethylbutanoyl)amino]methyl}-N-{1-[4-methyl-3-(trifluoromethyl)phenyl]-1H-indazol-4-yl}benzamide] were, in that order, 100%, 99% and 0.7 nM.
The like results for `Cc1ccc(-n2ncc3c(NC(=O)c4cc(CNC(=O)C5(C(F)(F)F)CC5)ccc4Cl)cccc32)cc1C(F)(F)F` [Example 256, 2-Chloro-N-{1-[4-methyl-3-(trifluoromethyl)phenyl]-1H-indazol-4-yl}-5-[({[1-(trifluoromethyl)cyclopropyl]carbonyl}amino)methyl]benzamide] were, in that order, 88%, 98% and 0.3 nM.
In test [1], `Cc1ccc(-n2ncc3c(NC(=O)c4cc(CNC(=O)C5(O)CC5)ccc4Cl)cccc32)cc1C(F)(F)F` [Example 257, 2-Chloro-5-({[(1-hydroxycyclopropyl)carbonyl]amino}methyl)-N-{1-[4-methyl-3-(trifluoromethyl)phenyl]-1H-indazol-4-yl}benzamide] gave an inhibition at 0.01 µM of 94% and an inhibition at 0.1 µM of 96%. Moreover, the IC50 in test [2] came out at 4.3 nM.
Taken in the same sequence, the figures for `COCC(=O)NCc1ccc(Cl)c(C(=O)Nc2cccc3c2cnn3-c2ccc(C)c(C(F)(F)F)c2)c1` [Example 258, 2-Chloro-5-{[(methoxyacetyl)amino]methyl}-N-{l-[4-methyl-3-(trifluoromethyl)phenyl]-1H-indazol-4-yl}benzamide] were 84%, 100% and 3.2 nM.

Values taken from patent US20250059172A1, “INDAZOLE COMPOUND AND PHARMACEUTICAL” (NIPPON SHINYAKU CO., LTD., priority 2021, published 2025).
